{"source": "patent US20110306554A1", "about": "“PEPTIDE CAPABLE OF BINDING TO IMMUNOGLOBULIN” (priority 2009, published 2011)", "key": {"[1]": {"system": "Monoclonal antibody cocktail-induced arthritis mice", "test": "Arthritis suppressing effects on arthritis-induced mice, Part 1", "format": "in vivo", "method": "Monoclonal antibody cocktail-induced arthritis mice (BALE/c Cr Slc (SPF)) were used to examine arthritis suppressing effects of a peptide which is indicated as R5 in Example 2. Arthritis was caused by intravenous administration of 2 mg/mouse of an arthritis-inducing monoclonal antibody cocktail and three days later, intraperitoneal administration of 50 μg/mouse of Lipopolysaccharide (LPS). Peptide R5 was intraperitoneally administered at a dose of 10 mg/kg once or twice a day from the day following the LPS administration (day 4) up to day 14. Methotrexate, a positive control drug, was orally administered at a dose of 0.1 mg/kg once a day from day 4. Clinical scores of the extremities were measured on even days from day 0 up to day 14. Under anesthesia, blood was removed with heparin-containing physiological saline, and an ice-cooled, 4% solution of paraformaldehyde was continuously injected to perfusion-fix the whole body. After perfusion-fixation, the knee joints (obtained by cutting at the center of the femur and of the tibia and removing the skin and muscles) and hock joints (from the center of the tibia to the toe tips) of both hind limbs were excised and further fixed by immersion in a 4% solution of paraformaldehyde overnight (4° C.). After that, both knee joints and both hock joints were transferred into 50 mM PBS (4° C.), and then subjected to soft x-ray radiography of the hock joints in two directions (from the internal side and the upper side).\nThe required amount was calculated for the peptide, based on the animal weight. A peptide solution was prepared to make a concentration of 1 mg/ml in a 0.5% methyl cellulose solution, and the prepared peptide solution was cold stored.\nA solution of methotrexate was prepared by weighing 1 mg of methotrexate into an agate mortar, grinding it with a pestle, and then gradually adding a 0.5% methyl cellulose solution to form a suspension and make a concentration of 0.01 mg/ml. […]\n(§1) Results of examinations were expressed by mean value±standard error and analyzed using EXSAS (Version 7.1.6, Arm Systex Co., Ltd.). […]"}, "[2]": {"system": "Monoclonal antibody cocktail-induced arthritis mice", "test": "Arthritis suppressing effects on arthritis-induced mice, Part 2", "format": "in vivo", "details": "10 mg/kg intraperitoneal twice a day, 14 consecutive days from day 0", "method": "Monoclonal antibody cocktail-induced arthritis mice were used to examine arthritis suppressing effects of peptides which are indicated as R1, R2, and R5 in Example 2. Arthritis was caused by intravenous administration of 2 mg/mouse of an arthritis-inducing monoclonal antibody cocktail and three days later, intraperitoneal administration of 50 μg/mouse of LPS. The peptides were administered at a dose of 10 mg/kg twice a day for a period of 14 consecutive days from the day of administration of the arthritis-inducing monoclonal antibody cocktail (day 0), and arthritis suppressing effect was examined in terms of clinical score. Experiments were carried out in a similar way to those in the section (1) in Example 3.\nThe required amount was calculated for each peptide, based on the animal weight. Each peptide solution was prepared to make a concentration of 1 mg/ml in a 0.5% methyl cellulose solution, and the prepared peptide solution was cold stored.\nMeasurement of body weight of animals was made on days 0, 3, 6, 9, 12, and 14 during the study period, with day 0 being the day of administration of the arthritis-inducing monoclonal antibody cocktail. Observation of general condition was made on a daily basis.\nMice were weighed on the day prior to start of administration and randomly assigned to groups using a grouping software, so that the average body weight values of the groups were approximately equal. To twenty 7-week-old mice, the arthritis-inducing monoclonal antibody cocktail was intravenously administered at a dose of 2 mg/mouse on day 0, and LPS was intraperitoneally administered at a dose of 50 μg/mouse on day 3.\nEach peptide solution was given via intraperitoneal administration twice a day, morning and afternoon, from day 0. As a control, a 0.5% solution of methyl cellulose was intraperitoneally administered twice a day from day 0. A needle (26G; Terumo) and a syringe (1.0-ml capacity; Terumo) were used for administration. […]\nas §1"}}, "note": "“Also recorded” adds a separate entry of the source."}
{"sequence": "STGKFTCKVPGLYYF (Immunoglobulin binding peptide) [R5]", "values": [{"measurement": "difference in effectiveness between once-a-day and twice-a-day administration", "setting": "[1]; 10 mg/kg intraperitoneal", "value": "no significant difference"}, {"measurement": "degree of arthritis suppression compared with methotrexate", "setting": "[1]; 10 mg/kg intraperitoneal vs methotrexate 0.1 mg/kg orally once a day", "value": "higher degree of arthritis suppression than that of methotrexate"}, {"measurement": "arthritis suppressing effect (clinical score)", "setting": "[1]; 10 mg/kg intraperitoneal, once or twice a day, day 4 to day 14", "value": "exhibited arthritis suppressing effects; also recorded: arthritis was suppressed"}, {"measurement": "arthritis suppressing effect (clinical score)", "setting": "[2]", "value": "Arthritis suppressing effects were observed; also recorded: arthritis was suppressed"}]}
